In ChEMBL document CHEMBL3044545, “Synthesis and evaluation of antioxidant and antimicrobial properties of thymol containing pyridone moieties” (2012):

Columns and labels:
Type in all cases: functional
Staphylococcus aureus [1] = experiment: Antimicrobial activity against Staphylococcus aureus at 100 ppm after 48 hr by agar well diffusion method; conditions: read-out: IZ
[2] = Antioxidant activity assessed as inhibition of NBT reduction at 100 ug/ml
Escherichia coli [3] = experiment: Antimicrobial activity against Escherichia coli at 100 ppm after 48 hr by agar well diffusion method; conditions: read-out: IZ
[4] = Antioxidant activity assessed as inhibition of NBT reduction at 80 ug/ml
[5] = Antioxidant activity assessed as inhibition of NBT reduction at 40 ug/ml
[6] = Antioxidant activity assessed as inhibition of NBT reduction at 60 ug/ml
[7] = Antioxidant activity assessed as inhibition of NBT reduction at 20 ug/ml
Talaromyces marneffei [8] = experiment: Antimicrobial activity against Talaromyces marneffei at 100 ppm after 48 hr by agar well diffusion method; conditions: read-out: IZ
Aspergillus niger [9] = experiment: Antimicrobial activity against Aspergillus niger at 100 ppm after 48 hr by agar well diffusion method; conditions: read-out: IZ
Talaromyces marneffei [10] = experiment: Antimicrobial activity against Talaromyces marneffei at 100 ug/ml after 48 hr by agar well diffusion method; conditions: read-out: IZ
Aspergillus niger [11] = experiment: Antimicrobial activity against Aspergillus niger at 100 ug/ml after 48 hr by agar well diffusion method; conditions: read-out: IZ
Staphylococcus aureus [12] = experiment: Antimicrobial activity against Staphylococcus aureus at 100 ug/ml after 48 hr by agar well diffusion method; conditions: read-out: IZ
Escherichia coli [13] = experiment: Antimicrobial activity against Escherichia coli at 100 ug/ml after 48 hr by agar well diffusion method; conditions: read-out: IZ

Work on `COc1cc(OC)c(-c2cc(-c3cc(C(C)C)c(O)cc3C)[nH]c(=O)c2C#N)c(OC)c1` yielded a zone of inhibition at 100 ppm (Staphylococcus aureus [1]) of 11 mm, an inhibition [2] of 82.5% and a zone of inhibition at 100 ppm (Escherichia coli [3]) of 10 mm. The inhibition [4] was 79%, the inhibition [5] was 52.6% and the inhibition [6] was 66%. The inhibition [7] was 32%.

With `Cc1cc(O)c(C(C)C)cc1-c1cc(-c2ccco2)c(C#N)c(=O)[nH]1` the zone of inhibition at 100 ppm (Talaromyces marneffei [8]) was 9 mm, the zone of inhibition at 100 ppm (Aspergillus niger [9]) was 10 mm and the zone of inhibition at 100 ppm (Staphylococcus aureus [1]) was 13 mm. The inhibition [2] was 70%, the zone of inhibition at 100 ppm (Escherichia coli [3]) was 12 mm and the inhibition [4] was 64%. The inhibition [5] was 42.5%, the inhibition [6] was 55.2% and the inhibition [7] was 26%.

With `Cc1cc(O)c(C(C)C)cc1-c1cc(-c2ccc(N(C)C)cc2)c(C#N)c(=O)[nH]1` the zone of inhibition at 100 ppm (Talaromyces marneffei [8]) was 13 mm, the zone of inhibition at 100 ppm (Aspergillus niger [9]) was 14 mm and the zone of inhibition at 100 ppm (Staphylococcus aureus [1]) was 14 mm. For the same compound, the inhibition [2] was 68%, the zone of inhibition at 100 ppm (Escherichia coli [3]) was 14 mm and the inhibition [4] was 66.5%. It also gave an inhibition [5] of 43%, an inhibition [6] of 53% and an inhibition [7] of 30%.

Compound `OC(Cn1cncn1)(Cn1cncn1)c1ccc(F)cc1F` [FLUCONAZOLE] has a zone of inhibition at 100 µg/mL (Talaromyces marneffei [10]) of 17 mm and a zone of inhibition at 100 µg/mL (Aspergillus niger [11]) of 16 mm.

Work on `Cc1cc(O)c(C(C)C)cc1-c1cc(-c2ccccc2Cl)c(C#N)c(=O)[nH]1` yielded a zone of inhibition at 100 ppm (Talaromyces marneffei [8]) of 12 mm, a zone of inhibition at 100 ppm (Aspergillus niger [9]) of 11 mm and a zone of inhibition at 100 ppm (Staphylococcus aureus [1]) of 14 mm. The inhibition [2] was 34%, the zone of inhibition at 100 ppm (Escherichia coli [3]) was 15 mm and the inhibition [4] was 32%. For the same compound, the inhibition [5] was 20%, the inhibition [6] was 26% and the inhibition [7] was 12%.

`COc1cccc(-c2cc(-c3cc(C(C)C)c(O)cc3C)[nH]c(=O)c2C#N)c1` showed a zone of inhibition at 100 ppm (Talaromyces marneffei [8]) of 11 mm, a zone of inhibition at 100 ppm (Aspergillus niger [9]) of 11 mm and a zone of inhibition at 100 ppm (Staphylococcus aureus [1]) of 13 mm. The inhibition [2] was 49%, the zone of inhibition at 100 ppm (Escherichia coli [3]) was 14 mm and the inhibition [4] was 43%. The inhibition [5] was 30%, the inhibition [6] was 38% and the inhibition [7] was 22%.

Work on `Cc1cc(O)c(C(C)C)cc1-c1cc(-c2ccccc2)c(C#N)c(=O)[nH]1` yielded a zone of inhibition at 100 ppm (Talaromyces marneffei [8]) of 9 mm, a zone of inhibition at 100 ppm (Aspergillus niger [9]) of 9 mm and a zone of inhibition at 100 ppm (Staphylococcus aureus [1]) of 11 mm. The inhibition [2] was 41%, the zone of inhibition at 100 ppm (Escherichia coli [3]) was 10 mm and the inhibition [4] was 58%. It also gave an inhibition [5] of 29%, an inhibition [6] of 34% and an inhibition [7] of 22%.

Compound `Cc1cc(O)c(C(C)C)cc1-c1cc(-c2cccs2)c(C#N)c(=O)[nH]1` has a zone of inhibition at 100 ppm (Talaromyces marneffei [8]) of 11 mm, a zone of inhibition at 100 ppm (Aspergillus niger [9]) of 10 mm and a zone of inhibition at 100 ppm (Staphylococcus aureus [1]) of 14 mm. For the same compound, the inhibition [2] was 68%, the zone of inhibition at 100 ppm (Escherichia coli [3]) was 13 mm and the inhibition [4] was 63%. It also gave an inhibition [5] of 41%, an inhibition [6] of 54.3% and an inhibition [7] of 26%.

With `COc1ccc(-c2cc(-c3cc(C(C)C)c(O)cc3C)[nH]c(=O)c2C#N)cc1OC` the zone of inhibition at 100 ppm (Talaromyces marneffei [8]) was 10 mm, the zone of inhibition at 100 ppm (Aspergillus niger [9]) was 9 mm and the zone of inhibition at 100 ppm (Staphylococcus aureus [1]) was 13 mm. It also gave an inhibition [2] of 61%, a zone of inhibition at 100 ppm (Escherichia coli [3]) of 13 mm and an inhibition [4] of 58%. It also gave an inhibition [5] of 44%, an inhibition [6] of 52% and an inhibition [7] of 25%.

`COc1cc(-c2cc(-c3cc(C(C)C)c(O)cc3C)[nH]c(=O)c2C#N)cc(OC)c1OC` gave a zone of inhibition at 100 ppm (Staphylococcus aureus [1]) of 10 mm, an inhibition [2] of 84.5% and a zone of inhibition at 100 ppm (Escherichia coli [3]) of 11 mm. For the same compound, the inhibition [4] was 82%, the inhibition [5] was 55% and the inhibition [6] was 71%. For the same compound, the inhibition [7] was 35%.

In the case of `COc1ccc(-c2cc(-c3cc(C(C)C)c(O)cc3C)[nH]c(=O)c2C#N)c(OC)c1`, the zone of inhibition at 100 ppm (Talaromyces marneffei [8]) is reported as 10 mm, the zone of inhibition at 100 ppm (Aspergillus niger [9]) is reported as 10 mm and the zone of inhibition at 100 ppm (Staphylococcus aureus [1]) is reported as 14 mm. For the same compound, the inhibition [2] was 58%, the zone of inhibition at 100 ppm (Escherichia coli [3]) was 13 mm and the inhibition [4] was 55%. The inhibition [5] was 37.5%, the inhibition [6] was 48.5% and the inhibition [7] was 27%.

Compound `COc1cc(-c2cc(-c3cc(C(C)C)c(O)cc3C)[nH]c(=O)c2C#N)ccc1O` has a zone of inhibition at 100 ppm (Talaromyces marneffei [8]) of 11 mm, a zone of inhibition at 100 ppm (Aspergillus niger [9]) of 11 mm and a zone of inhibition at 100 ppm (Staphylococcus aureus [1]) of 15 mm. It also gave an inhibition [2] of 44%, a zone of inhibition at 100 ppm (Escherichia coli [3]) of 14 mm and an inhibition [4] of 42%. The inhibition [5] was 32%, the inhibition [6] was 37.5% and the inhibition [7] was 26%.

`COc1ccc(-c2cc(-c3cc(C(C)C)c(O)cc3C)[nH]c(=O)c2C#N)cc1` gave a zone of inhibition at 100 ppm (Talaromyces marneffei [8]) of 10 mm, a zone of inhibition at 100 ppm (Aspergillus niger [9]) of 10 mm and a zone of inhibition at 100 ppm (Staphylococcus aureus [1]) of 13 mm. It also gave an inhibition [2] of 54%, a zone of inhibition at 100 ppm (Escherichia coli [3]) of 14 mm and an inhibition [4] of 47.5%. It also gave an inhibition [5] of 35%, an inhibition [6] of 43% and an inhibition [7] of 24%.

`Cc1ccc(C(C)C)c(O)c1` [THYMOL] showed a zone of inhibition at 100 ppm (Talaromyces marneffei [8]) of 7 mm, a zone of inhibition at 100 ppm (Aspergillus niger [9]) of 8 mm and a zone of inhibition at 100 ppm (Staphylococcus aureus [1]) of 9 mm. It also gave an inhibition [2] of 31%, a zone of inhibition at 100 ppm (Escherichia coli [3]) of 8 mm and an inhibition [4] of 27.5%. The inhibition [5] was 16%, the inhibition [6] was 22.5% and the inhibition [7] was 10%.

In the case of `Cc1onc(-c2ccccc2Cl)c1C(=O)N[C@@H]1C(=O)N2[C@@H]1SC(C)(C)[C@@H]2C(=O)O` [CLOXACILLIN], the zone of inhibition at 100 µg/mL (Staphylococcus aureus [12]) is reported as 18 mm and the zone of inhibition at 100 µg/mL (Escherichia coli [13]) is reported as 17 mm.

Work on `Cc1cc(O)c(C(C)C)cc1-c1cc(-c2ccccc2[N+](=O)[O-])c(C#N)c(=O)[nH]1` yielded a zone of inhibition at 100 ppm (Talaromyces marneffei [8]) of 11 mm, a zone of inhibition at 100 ppm (Aspergillus niger [9]) of 12 mm and a zone of inhibition at 100 ppm (Staphylococcus aureus [1]) of 13 mm. For the same compound, the inhibition [2] was 37.5%, the zone of inhibition at 100 ppm (Escherichia coli [3]) was 14 mm and the inhibition [4] was 35%. It also gave an inhibition [5] of 25.5%, an inhibition [6] of 31% and an inhibition [7] of 20%.
